Experimental data taken from patent US8420695B2, “Inhibitors of janus kinases” (Merck Sharp & Dohme Corp., priority 2008, dated 2013).

Target: T1, recombinant JAK2 (JAK2 JH1 domain) (Homo sapiens, UniProt O60674)
T1 construct: 50 nM JAK2 JH1 domain (Upstate); purchased Upstate
Assay: JAK2 Kinase Activity Inhibition Assay and Determination of IC50 (HTRF)
Type: biochemical
Details: 50 nM JAK2 JH1 domain, 15 μM MgATP, 80 min at room temperature
Procedure: JAK2 Kinase Activity Inhibition Assay and Determination of IC50
The kinase activity was measured using a modified version of the homogeneous time-resolved tyrosine kinase assay described in Park et al. Anal. Biochem. 269, 94-104 (1999).
IC50 was obtained by fitting the observed relationship between compound/inhibitor concentration and HTRF signal with a 4-parameter logistic equation.

T1 sequence (O60674 849-1124 limits assumed): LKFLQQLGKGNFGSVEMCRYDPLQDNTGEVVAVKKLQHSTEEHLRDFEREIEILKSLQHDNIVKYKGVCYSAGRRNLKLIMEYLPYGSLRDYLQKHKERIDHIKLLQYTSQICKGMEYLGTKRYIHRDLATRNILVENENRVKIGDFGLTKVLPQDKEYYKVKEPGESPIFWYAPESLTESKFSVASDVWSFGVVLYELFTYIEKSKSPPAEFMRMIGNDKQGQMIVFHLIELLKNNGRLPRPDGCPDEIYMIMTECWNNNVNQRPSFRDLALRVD

Compound | IC50 [nM]
CC(=O)c1ccc(Nc2sc(-c3c(F)cc(C(C)(C)O)cc3F)cc2C(N)=O)cc1 [Example 11, 2-[(4-acetylphenyl)amino]-5-[2,6-difluoro-4-(1-hydroxy-1-methylethyl)phenyl]thiophene-3-carboxamide] | 110
CN(C)C(=O)c1ccc(Nc2sc(-c3c(F)cc(C(C)(C)O)cc3F)cc2C(N)=O)cc1 [Example 5, 5-[2,6-difluoro-4-(1-hydroxy-1-methylethyl)-phenyl]-2-({4-[(dimethylamino)carbonyl]phenyl}amino)thiophene-3-carboxamide] | 21
CC(C)(O)c1cc(F)c(-c2cc(C(N)=O)c(Nc3ccc(CN4CCOCC4)cc3)s2)c(F)c1 [Example 23, 5-[2,6-difluoro-4-(1-hydroxy-1-methylethyl)-phenyl]-2-{[4-(morpholin-4-ylmethyl)-phenyl]amino}-thiophene-3-carboxamide] | 42
CN(C)S(=O)(=O)c1ccc(Nc2sc(-c3c(F)cc(C(C)(C)O)cc3F)cc2C(N)=O)cc1 [Example 29, 5-[2,6-difluoro-4-(1-hydroxy-1-methylethyl)-phenyl]-2-({4-[(dimethylamino)sulfonyl]phenyl}-amino)-thiophene-3-carboxamide] | 44
CN(C)Cc1ccc(Nc2sc(-c3c(F)cc(C(C)(C)O)cc3F)cc2C(N)=O)cc1 [Example 26, 5-[2,6-difluoro-4-(1-hydroxy-1-methylethyl)-phenyl]-2-({4-[(dimethylamino)methyl]phenyl}-amino)-thiophene-3-carboxamide] | 22
CC(C)(O)c1cc(F)c(-c2cc(C(N)=O)c(Nc3ccc(CN4CCS(=O)(=O)CC4)cc3)s2)c(F)c1 [Example 25, 5-[2,6-difluoro-4-(1-hydroxy-1-methylethyl)phenyl]-2-({4-[(1,1-dioxidothiomorpholin-4-yl)methyl]phenyl}amino)thiophene-3-carboxamide] | 26
CC(C)(O)c1cc(F)c(-c2cc(C(N)=O)c(Nc3ccc(C(=O)N4CCOCC4)cc3)s2)c(F)c1 [Example 14, 5-[2,6-difluoro-4-(1-hydroxy-1-methylethyl)phenyl]-2-{[4-(morpholin-4-ylcarbonyl)phenyl]amino}thiophene-3-carboxamide] | 21
CC(C)(O)c1ccc(Nc2sc(-c3c(F)cc(C(C)(C)O)cc3F)cc2C(N)=O)cc1 [Example 12, 5-[2,6-difluoro-4-(1-hydroxy-1-methylethyl)phenyl]-2-{[4-(1-hydroxy-1-methylethyl)phenyl]amino}thiophene-3-carboxamide] | 29
CC(C)(O)c1cc(F)c(-c2cc(C(N)=O)c(Nc3ccncc3)s2)c(F)c1 [Example 6, 5-[2,6-difluoro-4-(1-hydroxy-1-methylethyl)-phenyl]-2-(pyridin-4-ylamino)thio-phene-3-carboxamide] | 120
CS(=O)(=O)c1ccc(Nc2sc(-c3ccc(Cl)cc3)cc2C(N)=O)cc1 [Example 2, 5-(4-chlorophenyl)-2-{[4-(methylsulfonyl)-phenyl]amino}thio-phene-3-carboxamide] | 220
NC(=O)c1cc(-c2ccccc2)sc1Nc1cccnc1 [Example 18, 5-Phenyl-2-(pyridin-3-ylamino)-thiophene-3-carboxamide] | 320
CC(C)(O)c1cc(F)c(-c2cc(C(N)=O)c(Nc3ccccc3)s2)c(F)c1 [Example 21, 2-anilino-5-[2,6-difluoro-4-(1-hydroxy-1-methylethyl)phenyl]thiophene-3-carboxamide] | 490
CC(C)(O)c1cc(F)c(-c2cc(C(N)=O)c(Nc3ccnc(CO)c3)s2)c(F)c1 [Example 7, 5-[2,6-difluoro-4-(1-hydroxy-1-methylethyl)-phenyl]-2-{[2-(hydroxymethyl)-pyridin-4-yl]amino}thio-phene-3-carboxamide] | 75
NC(=O)c1cc(-c2ccccc2)sc1Nc1ccncc1 [Example 20, 5-Phenyl-2-(pyridin-4-ylamino)-thiophene-3-carboxamide] | 180
NC(=O)c1cc(-c2ccccc2)sc1Nc1ccccc1 [Example 17, 2-Anilino-5-phenylthiophene-3-carboxamide] | 1000
CC(C)(O)c1cc(F)c(-c2cc(C(N)=O)c(Nc3ccc(NS(C)(=O)=O)cc3)s2)c(F)c1 [Example 31, 5-[2,6-difluoro-4-(1-hydroxy-1-methylethyl)phenyl]-2-({4-[(methylsulfonyl)amino]phenyl}amino)thiophene-3-carboxamide] | 56
NC(=O)c1cc(-c2ccccc2)sc1Nc1cncnc1 [Example 19, 5-Phenyl-2-(pyrimidin-5-ylamino)-thiophene-3-carboxamide] | 2600
CC(C)(O)c1ccc(-c2cc(C(N)=O)c(Nc3cccnc3)s2)cc1 [Example 10, 5-(4-(1-Hydroxy-1-methylethyl)phenyl)-2-(3-pyridinylamino)-3-thiophenecarboxamide] | 220
CC(C)(O)c1cc(F)c(-c2cc(C(N)=O)c(Nc3ccc(CO)cc3)s2)c(F)c1 [Example 22, 5-[2,6-difluoro-4-(1-hydroxy-1-methylethyl)-phenyl]-2-{[4-(hydroxymethyl)-phenyl]amino}-thiophene-3-carboxamide] | 170
CC(C)(O)c1cc(F)c(-c2cc(C(N)=O)c(Nc3ccc(S(C)(=O)=O)cc3)s2)c(F)c1 [Example 1, 5-[2,6-difluoro-4-(1-hydroxy-1-methylethyl)phenyl]-2-{[4-(methylsulfonyl)phenyl]amino}thiophene-3-carboxamide] | 47
CNC(=O)c1ccc(Nc2sc(-c3c(F)cc(C(C)(C)O)cc3F)cc2C(N)=O)cc1 [Example 4, 5-[2,6-difluoro-4-(1-hydroxy-1-methylethyl)-phenyl]-2-({4-[(methylamino)-carbonyl]phenyl}-amino)thiophene-3-carboxamide] | 32
CC(C)(O)c1cc(F)c(-c2cc(C(N)=O)c(Nc3ccc(S(=O)(=O)N4CCOCC4)cc3)s2)c(F)c1 [Example 28, 5-[2,6-difluoro-4-(1-hydroxy-1-methylethyl)phenyl]-2-{[4-(morpholin-4-ylsulfonyl)phenyl]amino}thiophene-3-carboxamide] | 56
CC(C)(O)c1cc(F)c(-c2cc(C(N)=O)c(Nc3ccc(C=O)cc3)s2)c(F)c1 [Example 24, 5-[2,6-difluoro-4-(1-hydroxy-1-methylethyl)phenyl]-2-[(4-formylphenyl)amino]thiophene-3-carboxamide] | 410
Cc1noc(-c2ccc(Nc3sc(-c4c(F)cc(C(C)(C)O)cc4F)cc3C(N)=O)cc2)n1 [Example 9, 5-[2,6-difluoro-4-(1-hydroxy-1-methylethyl)-phenyl]-2-{[4-(3-methyl-1,2,4-oxadiazol-5-yl)phenyl]amino} thiophene-3-carboxamide] | 1400
